The record followed here is patent US5473039A, “Polypeptide analogs of apolipoprotein E, diagnostic systems and methods using the analogs” (The Scripps Research Institute, priority 1991, dated 1995).

For one experiment, the target named is T1, fibroblast LDL receptors (Homo sapiens, UniProt P01130).
T1 construct: transferred to DMEM medium with 10% lipoprotein-depleted serum (LPDS) for 48 hr to upregulate the LDL receptors; endogenous in cells; host or cells: normal fibroblasts
Nature of the experiment: 125I-LDL binding to fibroblasts. The following applies: for effect of substitution on ability to inhibit binding of 125I-LDL to fibroblasts: substitution at both positions of tandem peptide. The source says: The role of specific amino acids within residues 141-155 of intact apo E has been studied by Lalazar et al., J. Biol. Chem., 263:3542 (1988) with human apo E variants containing single amino acid substitutions. The variants were produced in a bacterial expression system complexed with the phospholipid, dimyristoylphosphatidylcholine (DMPC) and tested for their ability to bind to fibroblast LDL receptors. Lalazar et al., J. Biol. Chem., 263:3542 (1988). To confirm that the tandem peptide was bound by the LDL receptor and to identify amino acids within this peptide that were critical for binding, three tandem peptides were prepared as described in Example 1 that contained the same amino acid substitutions at both positions in the tandem sequence. The changes included substitutions of the basic amino acids Lys 143 to Ala, Arg 150 to Ala, and Leu 144 with an alpha helix disrupting amino acid, Pro. ^125 I-LDL at a specific activity of 700-900 cpm/ng (>99% precipitable by 10% TCA) was used for the binding assay as described in Example 9. Normal fibroblasts were plated in 16 mm culture dishes, grown for 72-96 hr in DMEM medium with 10% fetal bovine serum (FBS) and then transferred to DMEM medium with 10% lipoprotein-depleted serum (LPDS) for 48 hr to upregulate the LDL receptors. The amount of ^125 I-LDL bound per well was normalized to the protein content of each well, which was measured with the Bio-Rad protein assay reagent using bovine serum albumin (BSA) as a standard.

The test system of experiment [1] is Human peripheral blood mononuclear (PBM) cells. Nature of the experiment: PHA-stimulated PBM cell proliferation in serum-free CFBI medium. Format: cell-based. The note with it: for IC50: read-out: Average Specific Activity (peptide concentration that causes a 50% reduction in activity). How it is done:
In these studies, human peripheral blood mononuclear (PBM) cells were isolated and assayed for phytohemagglutinin (PHA)-stimulated proliferation as described by Pepe et al (J. Immunol., 136:3716-3723, 1986) except that the cells were resuspended and cultured in a serum-free and protein-free CFBI medium as described by Shive et al, Proc. Natl. Acad. Sci. […] After 48 h the cultures were pulsed for 18 h with […] of [^3 H]-methylthymidine and harvested onto glass fiber filters. Radioactivity of the filters was counted in a Beckman liquid scintillation counter. […] The average biological activity of each polypeptide for inhibiting lymphocyte […] proliferation is shown in Table 6, and is expressed as an average specific activity, which is the peptide concentration that causes a 50% reduction in activity.

The target of a further experiment is LDL receptor (Homo sapiens, UniProt P01130). Nature of the experiment: fibroblast 125I-LDL degradation. In kind it is cell-based. Further details: transferred to DMEM medium with 10% lipoprotein-depleted serum (LPDS) for 48 hr to upregulate the LDL receptors; endogenous in cells; host or cells: normal fibroblasts. The following applies: molar basis. On the procedure:
A trimer of the p141-155 peptide, p(141-155)3, was synthesized as in Example 1 and its activity compared with p(141-155) (monomeric) and with p(141-155)2 (dimeric) peptide. Normal fibroblasts were plated in wells of a 96-well culture plate and grown for 96 hr in DMEM medium with 10% FBS. The cells were transferred to DMEM medium with 10% LPDS for 48 hr to up regulate the LDL receptors. The LDL degradation assay was performed according to Example 9 with 2 μg/ml of ^125 I-LDL (300-500 cpm/ng) in 0.2 ml/well in DMEM medium with 10% LPDS and incubated for 5 hr at 37° C. The supernatants removed from the wells were extracted with 10% TCA. The TCA soluble counts were normalized to protein content per well as measured by the Bio-Rad protein assay.

Experiment [2] concerns Human peripheral blood mononuclear (PBM) cells. Nature of the experiment: PHA-stimulated lymphocyte proliferation (3H-thymidine uptake). Format: cell-based. The following applies: for ED50 or dose of peptide required to inhibit lymphocyte proliferation 50%: Example 17. The source says: A lymphocyte cell culture system was used to examine the ability of various polypeptides and conjugates to mimic the ability of Apo E to inhibit lymphocyte differentiation as evidence by proliferation.
Human peripheral blood mononuclear (PBM) cells are isolated from whole blood on a Ficoll-Hypaque gradient. The collected PBMs are washed three times with fresh medium (RPMI-1640 plus 5% fetal bovine serum, glutamine, penicillin, streptomycin and HEPES buffer). After washing, the cells are counted and set at a density of 1×10^5 /ml. For culture, 0.2 ml of the cells are plated per well of a 96-well microtiter plate. The peptide or conjugate is added to the wells in a 50 ul volume that can be either filter or UV sterilized. The typical timing for this experiment is to expose the cells to the Apo E polypeptide or self-conjugate over night. PHA, the mitogen that stimulates lymphocyte growth and proliferation, is added the next day. Forty-eight hours after the addition of PHA, 1 uCi of ^3 H-thymidine is added per well in a 1 ul volume and 18-24 hours later the cells are harvested on a mash. The mash cell harvester functions to collect the cells on filter paper where they are washed with buffer to remove free ^3 H-thymidine. The filter papers are dried, put into scintillation vials with scintillation cocktail and the B emissions obtained. Each data point collected represents the average thymidine uptake in four wells, and the standard error was less than 10% for all data points.
Various concentrations of various Apo E peptide were added to cultures that contained 8×10^5 peripheral blood mononuclear cells per ml. The cells were cultured at 37C and RPMI with 5% serum. All cells were exposed to PHA at 24 hours, labeled with 3H-thymidine at 72 hours and harvested at 90 hours. The counts per minute (cpm) of 3H-thymidine in the harvested cells was measured, and the data are expressed as the mean of four wells per treatment as a measure of thymidine uptake (x 1000 cpm). The standard deviation was less than 10% for all means.

Experiment [3] concerns ovarian theca/interstitial cells. The experiment in a line: ovarian androgen (androstenedione) production, LH-stimulated cultures. The following applies: non-conjugated, monomeric form. Format: cell-based, rats. An excerpt: The cell system used to examine the effect of various peptides and conjugates on ovarian androgen production was that described by Curtiss et al., J. Biol. Chem., 263:10965, (1988). Briefly, hypophysectomized (pituitary removed) immature female rats are sacrificed by cervical dislocation. The ovaries taken from the rats were trimmed free of fat and other non-ovarian tissues, cut into approximately six to eight pieces per ovary and dissociated in a solution of collagenase Dnaase which degrades the connective tissue releasing cell clusters. Approximately one to two hours of 37C incubation is required to dissociate the tissue. The cells were washed three times with fresh McCoy's 5A modified medium supplemented with glutamine and penicillin/streptomycin. No serum was added to this medium. The cells were cultured over night in 10 ml of medium in a T-25 flask to allow the non-steroidogenic cells to adhere. The next day non-adherent cells were recovered, washed three times with fresh media, counted and plated at a density of 1×10^3/ ml aliquotting 0.2 ml per well of a 96-well microtiter plate. All media in the experiment contains luteinizing hormone (LH) at 4 ng/ml and human high density lipoprotein (HDL) at 300 μg protein/mi. Monomeric peptides, peptide-BSA conjugates and self-conjugated peptide preparations at various concentrations (0.2 to 50 μg/ml) were added to the cells. The cells were then cultured for 48 hours at 37C, the supernatants were recovered, transferred to a clean 96-well microtiter plate and kept at -20C until the concentrations of androstenedione and progesterone were measured by radioimmunoassay. Each data point represents the average of measured androstenedione concentrations in four wells per treatment, and the standard error was less than 10% for all data points.
The ability of tandem Apo E peptide p(141-155)2 and self-conjugates of this peptide to affect ovarian androgen production was examined using the assay described in Example 4. […] After 48 hours of culture, the supernatants were collected, the androstenedione concentration measured by radioimmunoassay. […]

Ends that are not written are not given here.

T1 sequence (P01130 22-860): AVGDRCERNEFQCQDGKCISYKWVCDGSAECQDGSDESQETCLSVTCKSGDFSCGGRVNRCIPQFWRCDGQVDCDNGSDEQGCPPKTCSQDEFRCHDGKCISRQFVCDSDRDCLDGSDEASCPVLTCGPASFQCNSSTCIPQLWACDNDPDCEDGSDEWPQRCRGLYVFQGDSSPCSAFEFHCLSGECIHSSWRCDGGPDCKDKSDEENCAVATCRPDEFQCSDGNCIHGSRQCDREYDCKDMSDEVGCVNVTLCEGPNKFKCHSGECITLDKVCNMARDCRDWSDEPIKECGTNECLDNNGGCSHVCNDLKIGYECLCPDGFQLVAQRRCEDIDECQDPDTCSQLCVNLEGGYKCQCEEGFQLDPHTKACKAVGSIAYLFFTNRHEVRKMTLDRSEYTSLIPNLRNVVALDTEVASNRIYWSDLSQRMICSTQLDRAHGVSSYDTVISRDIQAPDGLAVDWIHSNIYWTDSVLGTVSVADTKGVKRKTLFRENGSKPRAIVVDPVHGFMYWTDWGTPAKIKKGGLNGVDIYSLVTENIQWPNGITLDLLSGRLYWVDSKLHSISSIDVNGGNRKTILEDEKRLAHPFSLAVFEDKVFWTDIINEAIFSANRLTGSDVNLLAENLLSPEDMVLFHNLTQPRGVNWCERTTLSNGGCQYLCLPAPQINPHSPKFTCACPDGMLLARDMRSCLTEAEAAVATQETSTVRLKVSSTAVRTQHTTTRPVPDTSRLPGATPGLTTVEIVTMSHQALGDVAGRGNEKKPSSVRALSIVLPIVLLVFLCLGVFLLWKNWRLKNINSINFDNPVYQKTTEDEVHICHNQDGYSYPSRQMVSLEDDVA
LDL receptor, sequence (P01130 22-860): as above

Regarding “LRALRKRLLRDADDLLRALRKRLLRDADD [p(K143 --A)2]”, the “effect of substitution on ability to inhibit binding of 125I-LDL to fibroblasts” value with fibroblast LDL receptors is “smallest effect”. Moreover, in experiment [1], the “peptide concentration above which uptake of tritiated thymidine / lymphocyte proliferation was inhibited” value is recorded as “above 4 uM” and the IC50 stood at 5.6 ± 1.7 µM.
Take “LRKLRKRLLADADDLLRKLRKRLLADADD [p(K150 --A)2]”: the “effect of substitution on ability to inhibit binding of 125I-LDL to fibroblasts” value with fibroblast LDL receptors was “without significant alterations in the biological activity”. Also, in experiment [1], the “peptide concentration above which uptake of tritiated thymidine / lymphocyte proliferation was inhibited” value is listed as “above 4 uM” and the IC50 was 7.5 ± 3 µM.
In the case of “LRKLRKRLLRDADDLLRKLRKRLLRDADD-LRKLRKRLLRDADDL [p(141-155)3]”, the “effectiveness in inhibiting fibroblast 125I-LDL degradation relative to the dimeric peptide” value on LDL receptor is 15 times. Moreover, the “ED50 or dose of peptide required to inhibit lymphocyte proliferation 50%” value in experiment [2] came out at 7 µM.
On to “LRKPRKRLLRDADDLLRKPRKRLLRDADDL [144 leu--pro, (LRKPRKRLLRDADDL)2]”, for which the “activity in inhibiting 125I-LDL binding to fibroblasts” value at fibroblast LDL receptors (at 60 μM) is “no activity”.
Turning to “RGLSAIRERL [p172-182, reference compound]”, the “effect on androgen secretion” value in experiment [3] is “no effect”.
Consider “Self-conjugated apo AI95-105: self-conjugated control peptide of apo AI residues 95-105 (AKVQPYLDDFQ; also: self-conjugated; UniProt P02647 119-129, looked up, fragment) [reference compound]”, for which, in experiment [2] (40 μg/ml, cells washed three times at 24 hr prior to PHA), the “3H-Thymidine Uptake (cpm ± SD), With Washing” value is given as 64,524 ± 4,200 cpm. Also, the “3H-Thymidine Uptake (cpm ± SD), No Washing” value in experiment [2] (40 μg/ml, no washing) is 83,480 ± 4,027 cpm.
With Y(LRKLRKRLLRDADDL)4 [Tetramer], in experiment [2], the “ED50 or dose of peptide required to inhibit lymphocyte proliferation 50%” value was found to be 1.2 µM. Further, the “inhibitory activity relative to the dimer” value in experiment [1] (molar basis) was “twice”. In addition, in experiment [1], the IC50 amounted to 2.8 ± 1.3 µM.
